In patent US8389011B2, “Pharmaceutical compositions of cholesteryl ester transfer protein inhibitors” (Bend Research, Inc., priority 2000, dated 2013):

Assay: In vitro dissolution test, microcentrifuge method, in phosphate buffered saline (PBS) pH 6.5
Format: physicochemical
Protocol: The compositions comprising the CETP inhibitor and concentration-enhancing polymer provide enhanced concentration of the dissolved CETP inhibitor in in vitro dissolution tests. […] An appropriate PBS solution is an aqueous solution comprising 20 mM sodium phosphate (Na2HPO4), 47 mM potassium phosphate (KH2PO4), 87 mM NaCl, and 0.2 mM KCl, adjusted to pH 6.5 with NaOH. An appropriate MFD solution is the same PBS solution wherein additionally is present 7.3 mM sodium taurocholic acid and 1.4 mM of 1-palmitoyl-2-oleyl-sn-glycero-3-phosphocholine. In particular, a composition of the present invention can be dissolution-tested by adding it to MFD or PBS solution and agitating to promote dissolution.
Indeed, for some extremely insoluble CETP inhibitors, in order to identify the MDC achieved it may be necessary to use an amount of test composition such that if all of the CETP inhibitor dissolved, the CETP inhibitor concentration would be 10,000-fold or even more, that of the equilibrium concentration of the CETP inhibitor.
The MDC is taken to be the maximum value of dissolved CETP inhibitor measured over the duration of the test.
Filtration can be conducted using a 13 mm, 0.45 μm polyvinylidine difluoride syringe filter sold by Scientific Resources under the trademark TITAN®. Centrifugation is typically carried out in a polypropylene microcentrifuge tube by centrifuging at 13,000 G for 60 seconds. Other similar filtration or centrifugation methods can be employed and useful results obtained.
The spray-dried dispersions of Examples 6 and 7 were evaluated in an in vitro dissolution test using a microcentrifuge method. In this test, the spray-dried dispersion was added to a microcentrifuge tube for a Drug 2 dose of about 1000 μg/mL (7.2 mg for Example 6, 18 mg for Example 7). The tube was placed in a 37° C. sonicating bath, and 1.8 mL phosphate buffered saline (PBS) at pH 6.5 and 290 mOsm/kg was added. The samples were quickly mixed using a vortex mixer for about 60 seconds. The samples were centrifuged at 13,000 G at 37° C. for 1 minute. The resulting supernatant solution was then sampled and diluted 1:6 (by volume) with methanol and then analyzed by high-performance liquid chromatography (HPLC). The contents of the tubes were mixed on the vortex mixer and allowed to stand undisturbed at 37° C. until the next sample was taken. Samples were collected at 4, 10, 20, 40, 90, and 1200 minutes.
For Control 2, an in vitro dissolution test was performed using the procedures described above except that 1.8 mg of crystalline Drug 2 was used.
In this method, 7.2 mg of each spray-dried dispersion was added to a 2-mL microcentrifuge tube. The tube was placed in a 37° C. sonicating bath, and 1.8 mL of a phosphate-buffered saline (PBS) solution at pH 6.5 and 290 mOsm/kg was added, resulting in a TCmax of 400 μg/mL. The samples were quickly mixed using a combination of vortex mixer and sonication for about 90 seconds. The samples were centrifuged at 13,000 G at 37° C. for 1 minute. The resulting supernatant solution was then sampled and diluted 1:6 (by volume) with methanol and then analyzed by HPLC. The tubes were then mixed on the vortex mixer and allowed to stand undisturbed at 37° C. until the next sample. Samples were collected at 4, 10, 20, 40, 90 and 1200 minutes.
For Control 5, an in vitro dissolution test was performed using the procedure described above, except that 0.72 mg of non-crystalline Drug 3 was placed in a microcentrifuge tube and mixed with 1.8 mL of PBS.
In this method, 15 mg of each SDD was added to a 2-mL microcentrifuge tube. The tube was placed in a 37° C. sonicating bath, and 1.5 mL of a phosphate-buffered saline (PBS) solution at pH 6.5 and 290 mOsm/kg) was added, resulting in a TCmax of 1000 μg/mL. The samples were quickly mixed using a combination of vortex mixer and sonication for about 90 seconds.

[1] = Table 13, Drug 3, PBS, TCmax 400 μg/mL
[2] = PBS pH 6.5, 37° C., TCmax 1000 μg/mL, time 0 min
[3] = PBS pH 6.5, 37° C., TCmax 1000 μg/mL, time 4 min
[4] = PBS pH 6.5, 37° C., TCmax 1000 μg/mL, time 10 min
[5] = PBS pH 6.5, 37° C., TCmax 1000 μg/mL, time 20 min
[6] = PBS pH 6.5, 37° C., TCmax 1000 μg/mL, time 40 min
[7] = PBS pH 6.5, 37° C., TCmax 1000 μg/mL, time 90 min
[8] = Table 16, Drugs 4-9, PBS pH 6.5, 37° C., TCmax 1000 μg/mL

Compound | AUC [2] [min-μg/mL] | Concentration [2] [ng/mL] | AUC [3] [min-μg/mL] | Concentration [3] [ng/mL] | AUC [4] [min-μg/mL] | Concentration [4] [ng/mL] | AUC [5] [min-μg/mL] | Concentration [5] [ng/mL] | AUC [6] [min-μg/mL] | Concentration [6] [ng/mL] | AUC [7] [min-μg/mL] | Concentration [7] [ng/mL] | AUC90 [8] [min-μg/mL] | Cmax, 90 [8] [ng/mL] | also measured
CCCOC(=O)N1c2ccc(C(F)(F)F)cc2[C@@H](N(Cc2cc(C(F)(F)F)cc(C(F)(F)F)c2)C(=O)OC)C[C@H]1CC [Control 5, [2R,4S]4-[(3,5-bis-trifluoromethyl-benzyl)-methoxycarbonyl-amino]-2-ethyl-6-trifluoromethyl-3,4-dihydro-2H-quinoline-1-carboxylic acid propyl ester] |  |  |  |  |  |  |  |  |  |  |  |  |  |  | Concentration (Table 12, Drug 3, PBS pH 6.5, 37° C., 0 min, TCmax 400 μg/mL): 0 ng/mL; Concentration (Table 12, Drug 3, PBS pH 6.5, 37° C., 4 min, TCmax 400 μg/mL): <100 ng/mL; Concentration (Table 12, Drug 3, PBS pH 6.5, 37° C., 10 min, TCmax 400 μg/mL): <100 ng/mL; Concentration (Table 12, Drug 3, PBS pH 6.5, 37° C., 20 min, TCmax 400 μg/mL): <100 ng/mL; Concentration (Table 12, Drug 3, PBS pH 6.5, 37° C., 40 min, TCmax 400 μg/mL): <100 ng/mL; Concentration (Table 12, Drug 3, PBS pH 6.5, 37° C., 90 min, TCmax 400 μg/mL): <100 ng/mL; AUC (Table 12, Drug 3, PBS pH 6.5, 37° C., to 0 min, TCmax 400 μg/mL): 0 min-μg/mL; AUC (Table 12, Drug 3, PBS pH 6.5, 37° C., to 4 min, TCmax 400 μg/mL): <0.4 min-μg/mL; AUC (Table 12, Drug 3, PBS pH 6.5, 37° C., to 10 min, TCmax 400 μg/mL): <1.0 min-μg/mL; AUC (Table 12, Drug 3, PBS pH 6.5, 37° C., to 20 min, TCmax 400 μg/mL): <2.0 min-μg/mL; AUC (Table 12, Drug 3, PBS pH 6.5, 37° C., to 40 min, TCmax 400 μg/mL): <4.0 min-μg/mL; AUC (Table 12, Drug 3, PBS pH 6.5, 37° C., to 90 min, TCmax 400 μg/mL): <9.0 min-μg/mL; AUC90 [1]: <9.0 min-μg/mL; Cmax, 90 [1]: <100 ng/mL
CCOC(=O)N1c2cc(OC)c(OC)cc2[C@@H](N(Cc2cc(C(F)(F)F)cc(C(F)(F)F)c2)C(=O)OC)C[C@H]1C [Control 6, [2R,4S]4-[(3,5-bis-trifluoromethyl-benzyl)-methoxycarbonyl-amino]-6,7-dimethoxy-2-methyl-3,4-dihydro-2H-quinoline-1-carboxylic acid ethyl ester] | 0 | 0 | <4 | <1000 | <10 | <1000 | <20 | <1000 | <40 | <1000 | <90 | <1000 | <90 | <1000 | 
CCOC(=O)N1c2cc(CC)c(CC)cc2[C@@H](N(Cc2cc(C(F)(F)F)cc(C(F)(F)F)c2)C(=O)OC)C[C@H]1C [Control 7, [2R,4S]4-[(3,5-bis-trifluoromethyl-benzyl)-methoxycarbonyl-amino]-6,7-diethyl-2-methyl-3,4-dihydro-2H-quinoline-1-carboxylic acid ethyl ester] | 0 | 0 | <4 | <1000 | <10 | <1000 | <20 | <1000 | <40 | <1000 | <90 | <1000 | <90 | <1000 | 
CCOC(=O)N1c2cc3c(cc2[C@@H](N(Cc2cc(C(F)(F)F)cc(C(F)(F)F)c2)C(=O)OC)C[C@H]1C)CCC3 [Control 8, [2R,4S]4-[(3,5-bis-trifluoromethyl-benzyl)-methoxycarbonyl-amino]-2-methyl-2,3,4,6,7,8-hexahydro-cyclopenta[g]quinoline-1-carboxylic acid ethyl ester] |  |  | <4 | <1000 | <10 | <1000 | <20 | <1000 | <40 | <1000 | <90 | <1000 | <90 | <1000 | 

More lines, main results first:

AUC [2] [min-μg/mL] | Concentration [2] [ng/mL] | AUC [3] [min-μg/mL] | Concentration [3] [ng/mL] | AUC [4] [min-μg/mL] | Concentration [4] [ng/mL] | AUC [5] [min-μg/mL] | Concentration [5] [ng/mL] | AUC [6] [min-μg/mL] | Concentration [6] [ng/mL] | AUC [7] [min-μg/mL] | Concentration [7] [ng/mL] | AUC90 [8] [min-μg/mL] | Cmax, 90 [8] [ng/mL] | Compound | also measured
0 | 0 | <4 | <1000 | <10 | <1000 | <20 | <1000 | <40 | <1000 | <90 | <1000 | <90 | <1000 | COC(=O)N(Cc1cc(C(F)(F)F)cc(C(F)(F)F)c1)[C@H]1C[C@@H](C2CC2)N(C(=O)OC(C)C)c2ccc(C(F)(F)F)cc21 [Control 10, [2S,4S]4-[(3,5-bis-trifluoromethyl-benzyl)-methoxycarbonyl-amino]-2-cyclopropyl-6-trifluoromethyl-3,4-dihydro-2H-quinoline-1-carboxylic acid isopropyl ester] | 
0 | 0 | <4 | <1000 | <10 | <1000 | <20 | <1000 | <40 | <1000 | <90 | <1000 | <90 | <1000 | CC1(C)Cc2nc(C3CCCC3)c([C@@H](F)c3ccc(C(F)(F)F)cc3)c(-c3ccc(F)cc3)c2[C@@H](O)C1 [Control 11, [3S,5S]2-cyclopentyl-4-(4-fluoro-phenyl)-3-[fluoro-(4-trifluoromethyl-phenyl)-methyl]-7,7-dimethyl-5,6,7,8-tetrahydro-quinolin-5-ol] | 
